Data published in PubChem BioAssay (NCI).
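The compound was tested at five concentrations on cells cultured in 96-well plates, with a 48-hour exposure period. TGI: concentration producing complete growth inhibition.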

Legend:
Test in all cases: NCI-60 cell line screen, 48 h
UACC-62 melanoma = tested on: UACC-62 melanoma
MDA-MB-231 breast = tested on: MDA-MB-231 breast
CAKI-1 renal = tested on: CAKI-1 renal
HOP-92 NSCLC = tested on: HOP-92 NSCLC
NCI/ADR-RES ovarian = tested on: NCI/ADR-RES ovarian
KM12 colon = tested on: KM12 colon
OVCAR-4 ovarian = tested on: OVCAR-4 ovarian
A549 NSCLC = tested on: A549 NSCLC
DU-145 prostate = tested on: DU-145 prostate
SK-MEL-28 melanoma = tested on: SK-MEL-28 melanoma
SK-OV-3 ovarian = tested on: SK-OV-3 ovarian
SF-268 CNS = tested on: SF-268 CNS
SN12C renal = tested on: SN12C renal
ACHN renal = tested on: ACHN renal
SK-MEL-2 melanoma = tested on: SK-MEL-2 melanoma
HCT-15 colon = tested on: HCT-15 colon
COLO 205 colon = tested on: COLO 205 colon
SK-MEL-5 melanoma = tested on: SK-MEL-5 melanoma
RPMI-8226 leukemia = tested on: RPMI-8226 leukemia
NCI-H226 lung = tested on: NCI-H226 lung

Row | Compound | TGI (UACC-62 melanoma) [µM] | TGI (MDA-MB-231 breast) [µM] | TGI (CAKI-1 renal) [µM] | TGI (HOP-92 NSCLC) [µM] | TGI (NCI/ADR-RES ovarian) [µM] | TGI (KM12 colon) [µM] | TGI (OVCAR-4 ovarian) [µM] | TGI (A549 NSCLC) [µM] | TGI (DU-145 prostate) [µM] | TGI (SK-MEL-28 melanoma) [µM] | TGI (SK-OV-3 ovarian) [µM] | TGI (SF-268 CNS) [µM] | TGI (SN12C renal) [µM] | TGI (ACHN renal) [µM] | TGI (SK-MEL-2 melanoma) [µM] | TGI (HCT-15 colon) [µM] | TGI (COLO 205 colon) [µM] | TGI (SK-MEL-5 melanoma) [µM] | TGI (RPMI-8226 leukemia) [µM] | TGI (NCI-H226 lung) [µM]
1 | CSc1ccc(/C=C2\N=C(c3ccccc3)N(/N=C3\C(=O)Nc4ccccc43)C2=O)cc1 | > 100 | > 100 | > 100 | > 100 | > 100 | > 100 | > 100 | > 100 | > 100 | > 100 | > 100 | > 100 | > 100 | > 100 | > 100 | > 100 | > 100 | > 100 |  | 
2 | CC(=O)OCC1OC(Oc2cc(C)c(O)cc2C/C=C(\C)CC/C=C(\C)C[C@@H](C=C(C)C)OC(C)=O)C(O)C(OC(C)=O)C1OC(C)=O (stereo not given in full) | > 50 | > 50 | > 50 | > 50 | > 50 | > 50 | > 50 | > 50 | > 50 | > 50 | > 50 | > 50 | > 50 | > 50 | > 50 | > 50 | 16.8 | 18.7 | 24.1 | 
3 | COC(=O)[C@@H]1COC(C(C)(C)C)N1C(=O)C(c1ccccc1)c1ccccc1 (stereo not given in full) | > 100 | 81.8 | > 100 | > 100 | > 100 | > 100 | > 100 | > 100 | > 100 | > 100 | 88.4 | > 100 | > 100 | > 100 | > 100 | > 100 | > 100 | > 100 |  | > 100
4 | O=C(c1ccccc1)N1CCC(Nc2nccs2)O1 (stereo not given) |  | > 10 | > 10 |  | > 10 |  | > 10 | > 10 | > 10 | > 10 | > 10 | > 10 | > 10 | > 10 | > 10 | > 10 | > 10 | > 10 | > 10 | > 10
5 | Nc1c(Br)cc(-c2nc3ccccc3s2)cc1Br | > 100 | > 100 | > 100 | > 100 | > 100 | > 100 |  | > 100 | > 100 | > 100 | > 100 | > 100 | > 100 | > 100 | > 100 | > 100 | > 100 | > 100 |  | > 100
6 | Cn1ccoc1=Nc1ccc(Cl)c(Cl)c1 | > 10 | > 10 | > 10 | > 10 | > 10 | > 10 | > 10 | > 10 | > 10 | > 10 | > 10 | > 10 | > 10 | > 10 |  | > 10 | > 10 | > 10 | > 10 | > 10
7 | O=C(O)c1nc2ccccc2nc1NCc1ccc(F)cc1 | > 100 | > 100 | > 100 | > 100 | > 100 | > 100 |  | > 100 | > 100 | > 100 |  | > 100 | > 100 |  | > 100 | 42.8 | 93.5 | > 100 | > 100 | > 100
8 | COC(=O)N/N=C(\c1ccccc1)c1ccc(OC)cc1 | > 100 | > 100 | > 100 |  | > 100 | > 100 | > 100 | > 100 | > 100 | > 100 | > 100 | > 100 | > 100 |  | > 100 | > 100 | > 100 | > 100 | > 100 | > 100
9 | CCCCCCC1CC(=O)C1(Cl)Cl (stereo not given) | 47.8 | 68.5 | 33.3 |  | > 100 | 55.7 | > 100 | > 100 | 92.8 |  | > 100 | 66.5 | 98.1 | 35.8 | 68.3 | 99.6 |  | 31.2 | 2.48 | > 100
10 | Cc1cccc(C)c1N1C(=O)C2c3[nH]c4ccccc4c3C3CCC(C(C)(C)C)CC3C2C1=O (stereo not given) | 36.2 | 24.4 | 26.8 | 23.9 | 48.8 |  |  | > 100 | 22.5 | 45.5 | > 100 | 39 | 21.8 | 33.7 | 33.7 | 24.2 | 24 | 28.6 | > 100 | 41
